Experimental data from patent US20110028455A1, “Indole-substituted 3-cyanopyridines As Kinase Inhibitors” (Wyeth LLC, priority 2007, published 2011).

Target: T1, human PKCθ full length enzyme (Homo sapiens, UniProt Q04759)
T1 construct: human PKCθ full length enzyme (Panvera Cat# P2996); purchased Panvera P2996
Experiment: PKCθ IMAP Assay
Assay type: biochemical
Conditions: PKCθ 1 nM; ATP 6 μM; peptide 100 nM; DMSO 5%; 25 minutes at room temperature; FP readout; read-out: PKC-Theta Mean IC50
Procedure: The materials used include the following: human PKCθ full length enzyme (Panvera Cat# P2996); substrate peptide: 5FAM-RFARKGSLRQKNV-OH (Molecular Devices, RP7032); ATP (Sigma Cat # A2383); DTT (Pierce, 20291); 5× kinase reaction buffer (Molecular Devices, R7209); 5× binding buffer A (Molecular Devices, R7282), 5× binding buffer B (Molecular Devices, R7209); IMAP Beads (Molecular Devices, R7284); and 384-well plates (Corning Costar, 3710).
The reaction buffer was prepared by diluting the 5× stock reaction buffer and adding DTT to obtain a concentration of 3.0 mM. The binding buffer was prepared by diluting the 5× binding buffer A. A master mix solution was prepared using a 90% dilution of the reaction buffer containing 2×ATP (12 uM) and 2× peptide (200 nm). Compounds were diluted in DMSO to 20× of the maximum concentration for the IC50 measurement. 27 μl of the master mix solution for each IC50 curve was added to the first column in a 384-well plate and 3 μl of 20× compound in DMSO was added to each well.
The final concentration of compound was 2× and 10% DMSO. DMSO was added to the rest of the master mix to increase the concentration to 10%. 10 μl of the master mix containing 10% DMSO was added to the rest of the wells on the plate except the 2nd column. 20 μl was transferred from the first column to the 2nd column. The compounds were serially diluted in 2:1 ratio starting from the 2nd column. A 2×(2 nM) PKCθ solution was made in the reaction buffer. 10 μl of the PKCθ solution was added to every well to achieve these final concentrations: PKCθ-1 nM; ATP-6 μM; peptide-100 nM; DMSO-5%. Samples were incubated for 25 minutes at room temperature. The binding reagent was prepared by diluting the beads in 1× binding buffer to 800:1. 50 μl of the binding reagent was added to every well and incubated for 20 minutes. FP was measured using Envision2100 (PerkinElmer Life Sciences). Wells with no ATP and wells with no enzyme were used as controls.

T1 sequence (Q04759 whole entry): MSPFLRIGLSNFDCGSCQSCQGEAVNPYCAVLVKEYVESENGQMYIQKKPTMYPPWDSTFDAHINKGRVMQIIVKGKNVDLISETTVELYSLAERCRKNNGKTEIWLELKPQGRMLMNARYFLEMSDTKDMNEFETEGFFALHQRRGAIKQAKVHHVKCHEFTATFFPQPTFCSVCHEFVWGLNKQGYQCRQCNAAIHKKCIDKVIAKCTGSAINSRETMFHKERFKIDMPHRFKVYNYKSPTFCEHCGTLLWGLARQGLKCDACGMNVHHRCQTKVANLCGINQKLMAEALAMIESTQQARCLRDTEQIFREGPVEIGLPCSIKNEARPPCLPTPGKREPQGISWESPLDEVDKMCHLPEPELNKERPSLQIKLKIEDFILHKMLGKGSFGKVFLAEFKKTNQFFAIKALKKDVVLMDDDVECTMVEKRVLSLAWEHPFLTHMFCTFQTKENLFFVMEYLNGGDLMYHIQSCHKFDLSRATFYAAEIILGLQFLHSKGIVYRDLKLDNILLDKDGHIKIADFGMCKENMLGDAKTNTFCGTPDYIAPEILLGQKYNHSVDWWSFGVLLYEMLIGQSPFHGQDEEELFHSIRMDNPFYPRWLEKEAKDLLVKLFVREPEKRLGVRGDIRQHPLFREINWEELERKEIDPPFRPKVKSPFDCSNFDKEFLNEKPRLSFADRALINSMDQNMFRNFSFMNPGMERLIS

IC50 [nM] | SMILES
19 | Cc1ncc(C#N)c(Nc2ccc3[nH]ccc3c2C)c1-c1ccc(OCCNCCO)cc1 [Example 17, 5-(4-{2-[(2-hydroxyethyl)amino]ethoxy}phenyl)-6-methyl-4-[(4-methyl-1H-indol-5-yl)amino]nicotinonitrile]
40 | Cc1ncc(C#N)c(Nc2ccc3[nH]ccc3c2C)c1-c1ccc(OCCNCCCO)cc1 [Example 18, 5-(4-{2-[(3-hydroxypropyl)amino]ethoxy}phenyl)-6-methyl-4-[(4-methyl-1H-indol-5-yl)amino]nicotinonitrile]
26 | Cc1ncc(C#N)c(Nc2ccc3[nH]ccc3c2C)c1-c1ccc(OCCNCCN2CCCC2)cc1 [Example 21, 6-methyl-4-[(4-methyl-1H-indol-5-yl)amino]-5-(4-{2-[(2-pyrrolidin-1-ylethyl)amino]ethoxy}phenyl)nicotinonitrile]
44 | Cc1ncc(C#N)c(Nc2ccc3[nH]ccc3c2C)c1-c1ccc(OCCN2CCCCC2)cc1 [Example 24, 6-methyl-4-[(4-methyl-1H-indol-5-yl)amino]-5-[4-(2-piperidin-1-ylethoxy)phenyl]nicotinonitrile]
68 | Cc1ncc(C#N)c(Nc2ccc3[nH]ccc3c2C)c1-c1ccc(OCCN2CCC(CCO)CC2)cc1 [Example 25, 5-(4-{2-[4-(2-hydroxyethyl)piperidin-1-yl]ethoxy}phenyl)-6-methyl-4-[(4-methyl-1H-indol-5-yl)amino]nicotinonitrile]
31 | Cc1ncc(C#N)c(Nc2ccc3[nH]ccc3c2C)c1-c1ccc(OCCN2CCC(N3CCCC3)CC2)cc1 [Example 26, 6-methyl-4-[(4-methyl-1H-indol-5-yl)amino]-5-{4-[2-(4-pyrrolidin-1-ylpiperidin-1-yl)ethoxy]phenyl}nicotinonitrile]
30 | Cc1ncc(C#N)c(Nc2ccc3[nH]ccc3c2C)c1-c1ccc(OCCN2CCC(N3CCCCC3)CC2)cc1 [Example 27, 5-{4-[2-(1,4′-bipiperidin-1′-yl)ethoxy]phenyl}-6-methyl-4-[(4-methyl-1H-indol-5-yl)amino]nicotinonitrile]
28 | Cc1ncc(C#N)c(Nc2ccc3[nH]ccc3c2C)c1-c1ccc(OCCN2CCC(N3CCOCC3)CC2)cc1 [Example 28, 6-methyl-4-[(4-methyl-1H-indol-5-yl)amino]-5-{4-[2-(4-morpholin-4-ylpiperidin-1-yl)ethoxy]phenyl}nicotinonitrile]
42 | Cc1ncc(C#N)c(Nc2ccc3[nH]ccc3c2C)c1-c1ccc(OCCN2CC(C)NCC2C)cc1 (stereo not shown) [Example 31, 5-{4-[2-(2,5-dimethylpiperazin-1-yl)ethoxy]phenyl}-6-methyl-4-[(4-methyl-1H-indol-5-yl)amino]nicotinonitrile]
25 | Cc1ncc(C#N)c(Nc2ccc3[nH]ccc3c2C)c1-c1ccc(OCCN2CC(C)NC(C)C2)cc1 (stereo not shown) [Example 32, 5-{4-[2-(3,5-dimethylpiperazin-1-yl)ethoxy]phenyl}-6-methyl-4-[(4-methyl-1H-indol-5-yl)amino]nicotinonitrile]
14 | Cc1ncc(C#N)c(Nc2ccc3[nH]ccc3c2C)c1-c1ccc(OCCN2CCCNCC2)cc1 [Example 34, 5-{4-[2-(1,4-diazepan-1-yl)ethoxy]phenyl}-6-methyl-4-[(4-methyl-1H-indol-5-yl)amino]nicotinonitrile]
64 | Cc1ncc(C#N)c(Nc2ccc3[nH]ccc3c2C)c1-c1ccc(OCCNCc2cccnc2)cc1 [Example 41, 6-methyl-4-[(4-methyl-1H-indol-5-yl)amino]-5-(4-{2-[(pyridin-3-ylmethyl)amino]ethoxy}phenyl)nicotinonitrile]
41 | Cc1ncc(C#N)c(Nc2ccc3[nH]ccc3c2C)c1-c1ccc(OCCNCc2ccncc2)cc1 [Example 42, 6-methyl-4-[(4-methyl-1H-indol-5-yl)amino]-5-(4-{2-[(pyridin-4-ylmethyl)amino]ethoxy}phenyl)nicotinonitrile]
11900 | COc1ccc(-c2c(C)ncc(C#N)c2Nc2ccc3cc[nH]c3c2)cc1OC [Example 46, 5-(3,4-dimethoxyphenyl)-4-(1H-indol-6-ylamino)-6-methylnicotinonitrile]
556 | COc1ccc(-c2c(C)ncc(C#N)c2Nc2ccc3[nH]c(C)cc3c2)cc1OC [Example 48, 5-(3,4-dimethoxyphenyl)-6-methyl-4-[(2-methyl-1H-indol-5-yl)amino]nicotinonitrile]
50 | Cc1ncc(C#N)c(Nc2ccc3[nH]ccc3c2)c1-c1ccccc1 [Example 50, 4-(1H-indol-5-ylamino)-6-methyl-5-phenylnicotinonitrile]

IC50 [nM] | SMILES
31 | COc1ccc(-c2c(C)ncc(C#N)c2Nc2ccc3[nH]ccc3c2)cc1OC [Example 51, 5-(3,4-dimethoxyphenyl)-4-(1H-indol-5-ylamino)-6-methylnicotinonitrile]
250 | COc1ccccc1-c1c(C)ncc(C#N)c1Nc1ccc2[nH]ccc2c1 [Example 52, 4-(1H-indol-5-ylamino)-5-(2-methoxyphenyl)-6-methylnicotinonitrile]
34 | COc1cccc(-c2c(C)ncc(C#N)c2Nc2ccc3[nH]ccc3c2)c1 [Example 53, 4-(1H-indol-5-ylamino)-5-(3-methoxyphenyl)-6-methylnicotinonitrile]
41 | COc1ccc(-c2c(C)ncc(C#N)c2Nc2ccc3[nH]ccc3c2)cc1 [Example 54, 4-(1H-indol-5-ylamino)-5-(4-methoxyphenyl)-6-methylnicotinonitrile]
26 | Cc1ncc(C#N)c(Nc2ccc3[nH]ccc3c2)c1-c1cc2ccccc2o1 [Example 55, 5-(1-benzofuran-2-yl)-4-(1H-indol-5-ylamino)-6-methylnicotinonitrile]
137 | Cc1ncc(C#N)c(Nc2ccc3[nH]ccc3c2)c1-c1cc2ccccc2s1 [Example 56, 5-(1-benzothiophen-2-yl)-4-(1H-indol-5-ylamino)-6-methylnicotinonitrile]
87 | Cc1ncc(C#N)c(Nc2ccc3[nH]ccc3c2)c1-c1cccc(CN(C)C)c1 [Example 57, 5-{3-[(dimethylamino)methyl]phenyl}-4-(1H-indol-5-ylamino)-6-methylnicotinonitrile]
191 | CCc1ncc(C#N)c(Nc2ccc3[nH]ccc3c2C)c1-c1ccc(OC)c(OC)c1 [Example 61, 5-(3,4-dimethoxyphenyl)-6-ethyl-4-[(4-methyl-1H-indol-5-yl)amino]nicotinonitrile]
84 | COc1ccc(-c2c(C)ncc(C#N)c2Nc2cc(Cl)c3[nH]ccc3c2C)cc1OC [Example 64, 4-[(7-chloro-4-methyl-1H-indol-5-yl)amino]-5-(3,4-dimethoxyphenyl)-6-methylnicotinonitrile]
80 | Cc1ncc(C#N)c(Nc2ccc3[nH]ccc3c2)c1-c1cccs1 [Example 65, 4-(1H-indol-5-ylamino)-6-methyl-5-(2-thienyl)nicotinonitrile]
42 | Cc1ncc(C#N)c(Nc2ccc3[nH]ccc3c2C)c1-c1cccc(CN(C)C)c1 [Example 66, 5-{3-[(dimethylamino)methyl]phenyl}-6-methyl-4-[(4-methyl-1H-indol-5-yl)amino]pyridine-3-carbonitrile]
21 | Cc1ncc(C#N)c(Nc2ccc3[nH]ccc3c2C)c1-c1ccc(C=O)o1 [Example 67, 5-(5-formylfuran-2-yl)-6-methyl-4-[(4-methyl-1H-indol-5-yl)amino]pyridine-3-carbonitrile]
20 | Cc1ncc(C#N)c(Nc2ccc3[nH]ccc3c2C)c1-c1ccc(CN2CCN(C)CC2)o1 [Example 68, 6-methyl-4-[(4-methyl-1H-indol-5-yl)amino]-5-{5-[(4-methylpiperazin-1-yl)methyl]furan-2-yl}pyridine-3-carbonitrile]
4.8 | Cc1ncc(C#N)c(Nc2ccc3[nH]ccc3c2C)c1-c1ccc(C=O)s1 [Example 69, 5-(5-formylthiophen-2-yl)-6-methyl-4-[(4-methyl-1H-indol-5-yl)amino]pyridine-3-carbonitrile]
14 | Cc1ncc(C#N)c(Nc2ccc3[nH]ccc3c2C)c1-c1ccc(CN2CCN(C)CC2)s1 [Example 70, 6-methyl-4-[(4-methyl-1H-indol-5-yl)amino]-5-{5-[(4-methylpiperazin-1-yl)methyl]thiophen-2-yl}pyridine-3-carbonitrile]
